Assay results from paper PMC11374660, “The novel family of Warbicin® compounds inhibits glucose uptake both in yeast and human cells and restrains cancer cell proliferation” (Frontiers in Oncology, 2024).

Assays:
[1] = test system: A549 lung adenocarcinoma cells; assay: Proliferation of A549 lung adenocarcinoma cells; type: cell-based, human; conditions: for Selected from primary screen for growth inhibition of A549 cells at 50 µM: RPMI 1 mM glucose; for Selected for having an IC50 ratio (10 mM glucose : 1 mM glucose) of A549 growth higher than WBC-A: ratio of IC50 on 10 mM and 1 mM glucose, compared to WBC-A
Protocol: For both adherent A549 and MCF10A H-RAS^V12 cell lines, growth curves were established using the IncuCyte® ZOOM technology. By collecting phase contrast images, the IncuCyte® software provides a calculated confluency percentage from which growth curves can be deducted. The cell number/density was measured by calculating the confluency of phase objects (cells) sticking on the bottom of the well. Cells were seeded at a density of 1000 - 1500 cells/well in a Nunc-Edge™ 96-well plate (Thermo Fisher Scientific) and growth was typically measured over 3 to 5 days. For the measurement of apoptosis induction using the MCF10A H-RAS^V12 cell line, the IncuCyte® Caspase-3/7 green dye was added to the medium in the recommended concentration at the beginning of the growth curve experiment. Apoptosis was detected by taking fluorescent images by excitation at 488 nm followed by IncuCyte® software analysis. Cell growth of the KMS-12-PE multiple myeloma cell line, which grows in suspension, was measured by manual cell counting. Cells were initially seeded at a density of 10^4 cells/well and incubated for 4 days after which the cell number was counted. For all cell lines, the same medium used for pregrowth was also used for the growth curve experiment, albeit with different glucose concentrations depending on the experimental design. With compound administration, the final concentration of DMSO never exceeded 0.1%. Typically, at least four technical repeats were included per condition.

[2] = test system: yeast tps1Δ strain; assay: Growth (rescue) of the yeast tps1Δ strain on galactose with or without glucose; type: cell-based, S. cerevisiae; conditions: 2.5 mM glucose
Protocol: Growth curves were made by measuring OD595 in a 96-well plate using the Multiskan™ FC Microplate Photometer (Thermo Fisher Scientific). Typically, for tps1Δ rescue experiments, cells were (pre)grown in Complete Synthetic medium containing 110 mM galactose. Compounds were always added 10 min prior to glucose addition to ensure maximal interaction between the cells and compounds. Cells originating from the preculture were harvested, washed in medium without sugar, after which they were resuspended to an OD of 0.1 in 200 µL of the appropriate medium. At least three technical replicates were included per condition. OD595 was measured at 30°C every 30 min with a 10-min shaking interval.

[3] = test system: glucose uptake by tps1Δ yeast cells; assay: Zero-trans uptake of radioactive glucose in tps1Δ yeast cells; type: cell-based, S. cerevisiae; conditions: tps1∆ cells, 2.5 mM glucose; read-out: IC50 values for 2.5 mM glucose uptake in tps1∆ cells
Protocol: Zero-trans uptake of radioactively labeled [U-^14C]glucose, [U-^14C]fructose or [U-^14C]galactose by S. cerevisiae cells was determined in accordance with previous studies ([45], [75]). Cells were grown on different carbon sources depending on the experiment. For measuring glucose uptake activity in the tps1Δ and tps1Δ hxtΔ strains, cells were grown on YP medium containing 325 mM glycerol (measurement of 10 s). Typically, for compound characterization and kinetic studies in wild type and tps1Δ strains, cells were (pre)grown on Complete Synthetic medium supplemented with 110 mM galactose (measurement of 10 s). In the experiments on the influence of hexokinase activity on the sugar uptake rate, the measurement duration was shortened to 5 s and cells were always grown on YP medium containing 325 mM glycerol and 430 mM ethanol. After harvesting, cells were washed twice with ice-cold 25 mM MES-buffer pH 6, and resuspended in their respective medium without sugar to a final concentration of 45 mg (wet weight)/mL. The amount of added tracer was estimated to give a response close to at least 1000 counts per min in order to adequately counter background noise. Cells were first preincubated for 10 min at 30°C with the compound to acclimate the cells to the temperature and to allow adequate interaction with the compound prior to uptake. Next, hexose sugar was mixed with the cell suspension, which was then incubated at 30°C for 5 or 10 s, depending on the experiment, after which the cells were rapidly filtered over a glass microfiber filter (Whatman GF/C) and washed three times with ice-cold dH2O. The loaded filter was transferred to a scintillation vial containing 3 mL liquid scintillation cocktail (Ultima-Flo M, Perkin Elmer) and counted using the Hidex 300 SL. Three blank measurements per strain were typically included to account for background signal, for which the cells were first quenched before adding the radioactive label.

Row | SMILES | inhibition of A549 cell proliferation in prescreening ([1]; 50 µM, 1 mM glucose, three days) | Selected from primary screen for growth inhibition of A549 cells at 50 µM ([1]; 50 µM) | Rescue of the tps1∆ strain on 2.5 mM glucose at 100 µM [2] | Minimal rescue concentration for growth of tps1∆ cells on 2.5 mM glucose [2] [µM] | IC50 [3] [µM] | Selected for having an IC50 ratio (10 mM glucose : 1 mM glucose) of A549 growth higher than WBC-A [1]
1 | C=C1[C@@H](C)[C@H]2[C@H](Cc3ccccc3)NC(=O)[C@]23OC(=O)/C=C/[C@H](O)CCC[C@@H](C)C/C=C/[C@H]3[C@@H]1O [Cytochalasin B, reference compound] | the strongest inhibitor of cell proliferation in this assay | – | – | – | – | –
2 | Cc1nc(SCC(=O)N2CC(C)OC(C)C2)c2c(-c3cccs3)csc2n1 (stereo not shown) [WBC-5B] | – | No | Yes | 12.5 | 22.5 | –
3 | Cc1nc(SCC(=O)NC(N)=O)c2c(-c3cccs3)csc2n1 [WBC-6B] | – | Yes | Yes | 12.5 | 10.2 | Lower IC50 ratio
4 | Cc1nc(SCC(=O)N(C)CCC#N)c2c(-c3cccs3)csc2n1 [WBC-7B] | – | No | Yes | 6.25 | 5.41 | –
5 | Cc1nc(SCC(=O)Nc2cc(C)on2)c2c(-c3cccs3)csc2n1 [WBC-10C] | – | Yes | Yes | 6.25 | 24.8 | Lower IC50 ratio
6 | Cc1nc(SCC(N)=O)c2c(-c3cccs3)csc2n1 [WBC-14A] | – | No | Yes | 25 | 27.9 | –
7 | COCCCNC(=O)CSc1nc(C)nc2scc(-c3cccs3)c12 [WBC-15B] | – | No | Yes | 25 | 32.7 | –
8 | CCn1c(CCC(N)=O)nnc1Sc1nc(C)nc2scc(-c3cccs3)c12 [WBC-16C] | – | Yes | Yes | 50 | 49.6 | Lower IC50 ratio
9 | Cc1nc(Sc2nnc(-c3cccnc3)n2C)c2c(-c3cccs3)csc2n1 [WBC-23A] | – | Yes | Yes | 25 | 8.6 | Lower IC50 ratio
10 | Cc1nc(Sc2nnc(-c3ccncc3)n2C)c2c(-c3cccs3)csc2n1 [WBC-26A] | – | Yes | Yes | 25 | 5.35 | Lower IC50 ratio
11 | Cc1nc(SCCN2CCOC2=O)c2c(-c3cccs3)csc2n1 [WBC-26C] | – | No | Yes | 25 | 23.8 | –
12 | CC(=O)NCc1ccc(C(=O)CSc2nc(C)nc3scc(-c4cccs4)c23)o1 [WBC-29B] | – | No | Yes | 6.25 | 9.23 | –
13 | Cc1nc(SCC(=O)NC(C)(C)C)c2c(-c3cccs3)csc2n1 [WBC-32B] | – | Yes | Yes | 12.5 | 30.3 | Lower IC50 ratio
14 | CCn1c(Sc2nc(C)nc3scc(-c4cccs4)c23)nnc1-c1ccncc1 [WBC-43C] | – | Yes | Yes | 12.5 | 8.93 | –
15 | Cc1nc(SCCN2CCOCC2)c2c(-c3cccs3)csc2n1 [WBC-44A] | – | Yes | Yes | 50 | 61.8 | Lower IC50 ratio
16 | Cc1nc(SCCO)c2c(-c3cccs3)csc2n1 [WBC-47A] | – | Yes | Yes | 6.25 | 15.6 | Lower IC50 ratio
17 | CCCc1nnc(Sc2nc(C)nc3scc(-c4cccs4)c23)[nH]1 [WBC-50C] | – | Yes | Yes | 50 | 67.8 | Lower IC50 ratio
18 | COC(=O)CSc1nc(C)nc2scc(-c3cccs3)c12 [WBC-53A] | – | No | Yes | 12.5 | 26.8 | –
19 | Cc1nc(Sc2nnc(C(F)(F)F)n2C)c2c(-c3cccs3)csc2n1 [WBC-54C] | – | Yes | Yes | 50 | 64.7 | Lower IC50 ratio
20 | Cc1nc(Sc2nnc3n2CCC(CN=[N+]=[N-])CC3)c2c(-c3cccs3)csc2n1 (stereo not shown) [WBC-87C] | – | Yes | Yes | 12.5 | 11.1 | Lower IC50 ratio
